For assay [1], the target named is T1, IRE1 E621A, E836A (Homo sapiens, UniProt O75460+P40337, E621A/E836A).
T1 construct: N2731; host or cells: HEK293T
The assay is described as follows: NanoLuc signal IRE1 depletion, IRE1 E621A, E836A, HEK293T cells. The following applies: E836A double mutant. In kind it is cell-based. The procedure:
(§1) 8 × 10^5 293T cells per well were seeded in 6-well plates (Costar, #3516) and incubated at 37 °C, 5% CO2 for 6 h. A mixture of 0.2 µg ERN1 (IRE1)-NanoLuc Fusion Vector (Promega, NV1321), 2 µg HaloTag-VHL Fusion Vector (Promega, N2731), 6 µl FuGENE HD Transfection Reagent (Promega, E2311), and 100 µL Opti-MEM I reduced serum medium (Gibco, #31985062) per well was incubated at room temperature for 20 min before adding to cells. For expression of IRE1 mutants, site-directed mutagenesis was performed using the ERN1-NanoLuc Fusion Vector as the DNA template, and the transfection mixture was prepared in the same way as WT IRE1. After 18 h, cells from 6-well plates were trypsinized, resuspended in Opti-MEM I reduced serum medium, and reseeded into 96-well plates (Costar, #3917), with or without the addition of HaloTag NanoBRET 618 Ligand (Promega, G9801). After 18 h of incubation, a titration of G6374 (dilutions made in Opti-MEM I reduced serum medium) was added to the cells. After 2 h of G6374 treatment, NanoBRET Nano-Glo Substrate (Promega, N1571) was added to cells. The 96-well plates were imaged by GloMax Discover Microplate Reader (Promega, GM3000) with the default “BRET: NanoBRET 618” protocol (Donor: 450 BP; Acceptor: 600 LP; Integration: 0.3 s). Data analysis was performed according to the user manual.

In assay [2] the target is IRE1 (Homo sapiens, UniProt O75460). Kind of assay: IP-IB of K48-linked ubiquitination of endogenous IRE1 in AMO1 cells. In kind it is cell-based. More on the design: Immunoblot (IB) analysis of endogenous IRE1 depletion in AMO1 cells; endogenous in cells; host or cells: AMO1. The following applies: 3 µM, 2 h, compared to DMSO. The procedure:
Cells were lysed in buffer containing 20 mM HEPES 7.2, 150 mM NaCl, and 1% Triton X-100, supplemented with fresh protease and phosphatase inhibitors (Invitrogen, #78440), cleared by centrifugation at 12,000 × g for 10 min, and analyzed by BCA protein assay (Thermo Fisher Scientific, #23227). Equal protein amounts were loaded, separated by SDS-PAGE, electrotransferred to nitrocellulose membranes using the iBLOT2 system (Invitrogen), and blocked in 5% nonfat milk solution for 60 min. Membranes were probed with primary antibodies at 1:1000 dilution in 5% milk at 4 °C overnight. Signal was detected using appropriate horseradish peroxidase (HRP)-conjugated secondary antibodies at 1:10,000 in 5% milk at room temperature for 1–2 h. Bands were visualized by the Azure 600 western blot imaging system (Azure Biosystems). For in vitro ubiquitination assays performed with Me-Ub, bands were visualized by the Odyssey CLx Imager (LI‑COR) after incubating the blots with the IRDye 800CW (LI-COR) secondary antibodies at 1:10,000 in Intercept Blocking Buffer (LI-COR) at room temperature for 1–2 h.
IRE1.LD antibodies were conjugated to agarose beads using the AminoLink® Plus Immobilization Kit (Thermo Fisher, #44894). […]

The subject of assay [3] is panel of 220 human kinases. The assay is described as follows: SelectScreen kinase profiling, panel of 220 kinases. In kind it is biochemical. The note with it: 1 µM, 1 h, besides IRE1. On the procedure:
The kinome selectivity of G6374 was assessed at 1 μM for 1 h versus a panel of 220 human kinases (SelectScreen Kinase Profiling Services, Thermo Fisher Scientific). The assays were conducted using either the Z’-LYTE technology to assess inhibition of enzyme activity ([ATP] = Km) or the TR-FRET-based LanthaScreen Eu Kinase Binding assay to assess competitive displacement of an ATP site binding probe. Assay results were normalized to positive and negative controls to determine percent inhibition. Image was created by KNIME Report Designer (KNIME.com AG, Zurich, Switzerland). Kinases for which ATP binding was inhibited by more than 90% were further examined by IB analysis for depletion by G6374 in AMO1 cells (4 h incubation).

Assay [4] has as its system AMO1 cells. Kind of assay: Incucyte cell confluency, AMO1 cells. In kind it is cell-based. The following applies: AMO1 shIRE1 cells, titration. On the procedure:
For non-adherent AMO1, KMS27, and OPM2 cells, cells were plated at 5000 cells/well in ultra-low attachment (ULA) 96-well plates (Costar, #7007) and centrifuged at 600 × g for 5 min for spheroid formation. For adherent U2OS and Colo201 cells, 2000 cells/well were seeded in a clear flat-bottom 96-well plate (Costar, #3595). Treatments were added at the time of cell seeding, and cells were cultured in complete RPMI media to a final volume of 200 µL/well. Cultures were maintained at 37 °C throughout the duration of the experiment. Cell confluency was tracked using the Incucyte live-cell imaging system (Sartorius S3). Picture frames were captured every 4 h with a 4× objective, and cell confluency (%) from the total well area as a function of time was calculated using the Incucyte software (version 2023 A Rev2).

Assay [5] deals with T2, IRE1 H579A (Homo sapiens, UniProt O75460+P40337, H579A).
T2 construct: N2731; host or cells: HEK293T
T2 sequence (O75460 19-977 H579A): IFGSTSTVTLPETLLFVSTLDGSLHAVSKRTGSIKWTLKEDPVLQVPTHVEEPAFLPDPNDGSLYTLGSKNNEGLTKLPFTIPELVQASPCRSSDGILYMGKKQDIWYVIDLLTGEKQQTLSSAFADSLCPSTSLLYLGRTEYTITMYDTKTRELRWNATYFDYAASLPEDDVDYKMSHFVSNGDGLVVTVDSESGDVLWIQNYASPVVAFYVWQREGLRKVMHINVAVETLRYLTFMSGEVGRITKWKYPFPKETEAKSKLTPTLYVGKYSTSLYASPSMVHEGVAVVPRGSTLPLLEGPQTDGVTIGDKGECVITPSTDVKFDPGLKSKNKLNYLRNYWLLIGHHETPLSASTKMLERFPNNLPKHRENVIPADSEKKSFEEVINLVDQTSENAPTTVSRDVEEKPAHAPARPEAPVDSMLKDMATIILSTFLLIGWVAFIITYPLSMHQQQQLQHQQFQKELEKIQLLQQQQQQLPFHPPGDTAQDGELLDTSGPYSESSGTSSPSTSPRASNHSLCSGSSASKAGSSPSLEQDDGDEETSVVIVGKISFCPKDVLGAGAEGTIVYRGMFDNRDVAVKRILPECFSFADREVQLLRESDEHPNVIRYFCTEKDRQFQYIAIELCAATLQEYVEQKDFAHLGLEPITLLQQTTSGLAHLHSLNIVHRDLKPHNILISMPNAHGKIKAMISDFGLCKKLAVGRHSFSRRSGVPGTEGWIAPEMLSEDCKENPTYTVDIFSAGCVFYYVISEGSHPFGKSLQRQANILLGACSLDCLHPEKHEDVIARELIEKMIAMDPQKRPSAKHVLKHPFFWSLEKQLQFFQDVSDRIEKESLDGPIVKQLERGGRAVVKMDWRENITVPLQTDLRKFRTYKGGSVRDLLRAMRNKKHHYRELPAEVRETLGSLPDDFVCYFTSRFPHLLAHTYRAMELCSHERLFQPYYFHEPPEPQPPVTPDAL
T2 sequence (P40337 whole entry): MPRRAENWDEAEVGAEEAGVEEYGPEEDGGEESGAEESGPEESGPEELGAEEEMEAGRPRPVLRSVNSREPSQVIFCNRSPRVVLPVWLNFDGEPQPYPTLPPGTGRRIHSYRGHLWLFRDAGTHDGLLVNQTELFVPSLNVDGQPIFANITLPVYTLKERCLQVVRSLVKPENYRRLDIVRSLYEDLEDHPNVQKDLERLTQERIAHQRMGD
T2 sequence (Q15369 whole entry partner): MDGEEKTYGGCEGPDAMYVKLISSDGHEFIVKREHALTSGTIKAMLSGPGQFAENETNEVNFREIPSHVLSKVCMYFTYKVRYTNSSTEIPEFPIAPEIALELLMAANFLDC
T2 sequence (Q15370 whole entry partner): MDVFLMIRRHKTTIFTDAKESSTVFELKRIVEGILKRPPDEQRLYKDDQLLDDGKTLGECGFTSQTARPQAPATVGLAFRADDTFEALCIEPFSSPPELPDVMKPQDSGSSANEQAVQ
T2 sequence (Q13617 whole entry partner): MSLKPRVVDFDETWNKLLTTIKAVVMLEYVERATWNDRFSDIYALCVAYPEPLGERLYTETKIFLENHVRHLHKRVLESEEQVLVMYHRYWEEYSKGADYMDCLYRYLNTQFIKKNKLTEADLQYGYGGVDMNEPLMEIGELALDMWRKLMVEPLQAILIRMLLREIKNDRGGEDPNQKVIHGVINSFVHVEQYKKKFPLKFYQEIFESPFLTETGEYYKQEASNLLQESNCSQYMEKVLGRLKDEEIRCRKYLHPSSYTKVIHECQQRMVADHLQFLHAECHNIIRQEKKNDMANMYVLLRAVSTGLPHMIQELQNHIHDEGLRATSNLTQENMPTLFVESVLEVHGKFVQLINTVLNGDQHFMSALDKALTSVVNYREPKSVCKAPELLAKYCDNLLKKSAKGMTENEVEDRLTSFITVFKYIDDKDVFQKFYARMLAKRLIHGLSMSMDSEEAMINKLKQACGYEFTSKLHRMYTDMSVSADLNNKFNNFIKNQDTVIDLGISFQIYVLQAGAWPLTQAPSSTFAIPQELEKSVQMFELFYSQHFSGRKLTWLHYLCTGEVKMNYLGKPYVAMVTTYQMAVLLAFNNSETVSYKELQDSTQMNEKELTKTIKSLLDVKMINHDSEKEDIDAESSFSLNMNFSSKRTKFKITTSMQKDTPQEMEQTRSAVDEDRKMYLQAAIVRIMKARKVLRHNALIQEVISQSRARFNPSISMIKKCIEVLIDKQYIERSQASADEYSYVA
T2 sequence (P62877 whole entry partner): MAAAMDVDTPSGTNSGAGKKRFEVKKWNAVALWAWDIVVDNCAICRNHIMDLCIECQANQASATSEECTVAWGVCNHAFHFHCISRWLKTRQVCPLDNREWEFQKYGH
The assay is described as follows: NanoLuc signal IRE1 depletion, IRE1 H579A, HEK293T cells. In kind it is cell-based. The note with it: HEK-293T. The procedure:
as §1

Here are results for one compound from paper PMC12749748, “Chemically-induced degradation of the endoplasmic-reticulum stress sensor IRE1 by a VHL-recruiting chimera” (Nature Communications, 2025).

T1 sequence (O75460 19-977 E621A/E836A): as the sequence (O75460 19-977 H579A) above, with A561H, E603A, E818A counted along it
T1 sequence (P40337 whole entry): as the sequence (P40337 whole entry) above
T1 sequence (Q15369 whole entry partner): as the sequence (Q15369 whole entry partner) above
T1 sequence (Q15370 whole entry partner): as the sequence (Q15370 whole entry partner) above
T1 sequence (Q13617 whole entry partner): as the sequence (Q13617 whole entry partner) above
T1 sequence (P62877 whole entry partner): as the sequence (P62877 whole entry partner) above
IRE1, sequence (O75460 19-977): as the sequence (O75460 19-977 H579A) above, with A561H counted along it

As for `Cc1ncsc1-c1ccc(CNC(=O)[C@@H]2C[C@@H](O)CN2C(=O)[C@@H](NC(=O)CCCCN2CCN([C@H]3CC[C@H](Nc4ncc5ccc(=O)n(C(C)C)c5n4)CC3)CC2)C(C)(C)C)cc1` [G6374], the DC50 in assay [1] worked out at 0.11 ± 0.03 µM. Besides, the Dmax in assay [1] (HEK-293T) was 67%; in assay [5], 27%. Further, the “K48-linked ubiquitination of endogenous IRE1” value in assay [2] is listed as “significant increase in K48-linked ubiquitination of endogenous IRE1”. The “number of other kinases inhibited by >90%” value in assay [3] came out at 9. In addition, the “growth inhibition (cell confluency)” value in assay [4] is given as “concentration-dependent growth inhibition”.
